Columns and labels:
Assay type in all cases: cell-based
human VPAC2 receptor = molecular target: T1, human VPAC2 receptor (Homo sapiens, UniProt P41587); assay: cAMP stimulation in CHO cells expressing VPAC2
T1 construct: expressed in transfected cells; host or cells: CHO cells (G418 selection)
T1 sequence (P41587 24-438): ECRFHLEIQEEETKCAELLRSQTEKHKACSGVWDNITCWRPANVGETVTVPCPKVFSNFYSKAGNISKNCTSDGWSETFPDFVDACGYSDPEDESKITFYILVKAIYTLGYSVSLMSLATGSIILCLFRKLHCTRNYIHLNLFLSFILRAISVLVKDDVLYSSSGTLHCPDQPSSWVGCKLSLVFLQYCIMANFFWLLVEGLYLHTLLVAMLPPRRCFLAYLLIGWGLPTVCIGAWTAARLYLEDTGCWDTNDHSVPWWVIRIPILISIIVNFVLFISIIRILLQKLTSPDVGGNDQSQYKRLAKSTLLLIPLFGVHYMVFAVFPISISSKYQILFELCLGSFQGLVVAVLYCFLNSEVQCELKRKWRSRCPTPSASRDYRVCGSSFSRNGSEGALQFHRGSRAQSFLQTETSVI
Outline: (§1)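 Serum-starved CHO cells expressing human receptors were pre-treated 20 min with 500 μM IBMX, then exposed to agonist concentration curves for 10 min in 500 μM IBMX. cAMP quantified by competition with bovine PKA and ^3H-cAMP (1 h, room temperature), scintillation read.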

human PAC1 receptor = molecular target: T2, human PAC1 receptor (Homo sapiens, UniProt P41586); assay: cAMP stimulation in CHO cells expressing PAC1
T2 construct: expressed in transfected cells; host or cells: CHO cells (G418 selection)
T2 sequence (P41586 21-468): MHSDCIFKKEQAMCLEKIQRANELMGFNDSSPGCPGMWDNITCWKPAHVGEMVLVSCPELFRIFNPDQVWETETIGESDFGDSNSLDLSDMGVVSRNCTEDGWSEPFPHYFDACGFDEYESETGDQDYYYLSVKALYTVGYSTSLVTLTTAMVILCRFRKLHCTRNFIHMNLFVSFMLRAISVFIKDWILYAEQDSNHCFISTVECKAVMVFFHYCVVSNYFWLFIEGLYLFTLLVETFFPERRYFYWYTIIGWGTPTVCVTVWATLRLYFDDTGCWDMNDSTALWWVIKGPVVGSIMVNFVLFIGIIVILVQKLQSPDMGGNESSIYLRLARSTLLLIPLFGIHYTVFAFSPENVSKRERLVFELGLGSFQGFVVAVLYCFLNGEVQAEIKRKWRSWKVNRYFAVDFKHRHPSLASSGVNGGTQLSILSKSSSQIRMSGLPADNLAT
Outline: as §1

human VPAC1 receptor = molecular target: T3, human VPAC1 receptor (Homo sapiens, UniProt P32241); assay: cAMP stimulation in CHO cells expressing VPAC1
T3 construct: expressed in transfected cells; host or cells: CHO cells (G418 selection)
T3 sequence (P32241 31-457): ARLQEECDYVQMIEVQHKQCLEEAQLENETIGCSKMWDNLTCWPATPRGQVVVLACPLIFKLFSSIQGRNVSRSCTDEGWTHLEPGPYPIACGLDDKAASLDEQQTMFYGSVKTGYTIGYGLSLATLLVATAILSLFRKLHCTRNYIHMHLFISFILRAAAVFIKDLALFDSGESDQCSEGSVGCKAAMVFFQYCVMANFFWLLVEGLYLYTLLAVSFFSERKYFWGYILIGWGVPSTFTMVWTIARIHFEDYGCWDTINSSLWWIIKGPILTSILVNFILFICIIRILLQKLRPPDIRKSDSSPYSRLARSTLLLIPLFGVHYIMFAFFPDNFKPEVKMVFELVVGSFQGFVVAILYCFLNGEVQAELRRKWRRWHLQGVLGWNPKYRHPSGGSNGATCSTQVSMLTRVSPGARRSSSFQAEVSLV

EC50 (human VPAC2 receptor): > 2500 nM
Emax (human VPAC2 receptor; CHO): 55%
EC50 (human PAC1 receptor): 412 nM
Emax (human PAC1 receptor; CHO): 75%
Emax (human VPAC1 receptor; CHO, read-out: VPAC1 Emax): 125%
Receptor selectivity ratio VPAC1/PAC1 (human VPAC1 receptor; ratio of cAMP EC50 values): 1.86
EC50 (human VPAC1 receptor; read-out: VPAC1 EC50): 767 nM
Compound: CCC[C@H](NC(=O)[C@H](CCC(N)=O)NC(=O)[C@H](CCCCN)NC(=O)[C@H](CCCNC(=N)N)NC(=O)[C@H](Cc1ccc(O)cc1)NC(=O)[C@H](CCCNC(=N)N)NC(=O)[C@H](CO)NC(=O)[C@H](Cc1ccc(O)cc1)NC(=O)[C@H](CO)NC(=O)[C@H](CC(=O)O)NC(=O)[C@@H](NC(=O)[C@H](Cc1ccccc1)NC(=O)[C@@H](NC(=O)CCCCNC(=O)[C@H](CC(=O)O)NC(=O)[C@@H](CO)NC(=O)[C@@H](N)Cc1c[nH]cn1)[C@@H](C)CC)[C@@H](C)O)C(=O)N[C@@H](C)C(=O)N[C@H](C(=O)N[C@@H](CCCCN)C(=O)N[C@@H](CCCCN)C(=O)N[C@@H](Cc1ccc(O)cc1)C(=O)N[C@@H](CC(C)C)C(=O)N[C@@H](C)C(=O)N[C@@H](C)C(=O)N[C@H](C(=O)N[C@@H](CC(C)C)C(=O)N[C@@H](CO[C@@H]1O[C@H](CO)[C@@H](O)[C@H](O)[C@H]1O)C(N)=O)C(C)C)C(C)C [CRA 3009]

Reference: article PMC8887546, “Design and Synthesis of Brain Penetrant Glycopeptide Analogues of PACAP With Neuroprotective Potential for Traumatic Brain Injury and Parkinsonism” (Frontiers in drug discovery, 2022)
